Patent US20220041583A1, “IMMUNOMODULATORS, COMPOSITIONS AND METHODS THERE OF” (BETTA PHARMACEUTICALS CO., LTD, priority 2018, published 2022)
Counter-ions that a name gives are not always drawn.

Molecular target: T1, PD-1/PD-L1 (Homo sapiens, UniProt Q9NZQ7)
T1 construct: Recombinant human PD-L1 protein (19-238) with a His-tag at the C-terminus; purchased AcroBiosystems PD1-H5229 (PD-L1); PD1-H5257 (PD-1)
Assay: PD-1/PD-L1 homogenous time-resolved fluorescence (HTRF) binding assay
Protocol: Resolved Fluorescence (HTRF) Binding Assay
The assays were conducted in a standard black 384-well polystyrene plate with a final volume of 20 μL. Inhibitors were first serially diluted in DMSO and then added to the plate wells before the addition of other reaction components. The final concentration of DMSO in the assay was 1%. The assays were carried out at 25° C. in the PBS buffer (pH 7.4) with 0.05% Tween-20 and 0.1% BSA. Recombinant human PD-L1 protein (19-238) with a His-tag at the C-terminus was purchased from AcroBiosy stems (PD1-H5229). Recombinant human PD-1 protein (25-167) with Fc tag at the C-terminus was also purchased from AcroBiosystems (PD1-H5257). PD-L1 and PD-1 proteins were diluted in the assay buffer and 10 μL was added to the plate well. Plates were centrifuged and proteins were preincubated with inhibitors for 40 min. The incubation was followed by the addition of 10 μL of HTRF detection buffer supplemented with Europium cryptate-labeled anti-human IgG (PerkinElmer-AD0212) specific for Fc and anti-His antibody conjugated to SureLight®-Allophycocyanin (APC, PerkinElmer-AD0059H). After centrifugation, the plate was incubated at 25° C. for 60 min. Before reading on a PHERAstar FS plate reader (665 nm/620 nm ratio). Final concentrations in the assay were […] PD1, 10 nM PD-L1, 1 nM europium anti-human IgG and 20 nM anti-His-Allophycocyanin. IC50 determination was performed by fitting the curve of percent control activity versus the log of the inhibitor concentration using the GraphPad Prism 5.0 software.

T1 sequence (Q9NZQ7 19-238): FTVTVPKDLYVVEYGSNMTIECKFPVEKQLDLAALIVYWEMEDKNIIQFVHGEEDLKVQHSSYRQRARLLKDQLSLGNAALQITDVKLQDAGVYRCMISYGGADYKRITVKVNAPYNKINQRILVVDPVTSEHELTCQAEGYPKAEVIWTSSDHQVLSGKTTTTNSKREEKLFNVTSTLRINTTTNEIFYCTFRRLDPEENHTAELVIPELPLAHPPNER

SMILES	IC50 (Table 6, numeric values) [nM]	IC50 (Table 6, class symbols) [nM]
CSc1cc2oc(-c3cccc(-c4ccccc4)c3C)nc2cc1CN1CCCC[C@H]1C(=O)O [Example 1, (S)-1-((2-(2-methyl-[1,1′-biphenyl]-3-yl)-6-(methylthio)benzo[d]oxazol-5-yl)methyl)piperidine-2-carboxylic acid]	1.9	–
CSc1cc2oc(-c3cccc(-c4ccccc4)c3C)nc2cc1CN[C@@H](C(=O)O)[C@@H](C)O [Example 3, ((2-(2-methyl-[1,1′-biphenyl]-3-yl)-6-(methylthio)benzo[d]oxazol-5-yl)methyl)-D-allothreonine]	–	10 to 100
CSc1cc2oc(-c3cccc(-c4ccccc4)c3C)nc2cc1CN[C@H](C(=O)O)[C@H](C)O [Example 4, ((2-(2-methyl-[1,1′-biphenyl]-3-yl)-6-(methylthio)benzo[d]oxazol-5-yl)methyl)-L-allothreonine]	–	0.1 to 10
CSc1cc2oc(-c3cccc(-c4ccccc4)c3C)nc2cc1CN[C@@H](C)C(=O)O [Example 5, ((2-(2-methyl-[1,1′-biphenyl]-3-yl)-6-(methylthio)benzo[d]oxazol-5-yl)methyl)-L-alanine]	–	0.1 to 10
CSc1cc2oc(-c3cccc(-c4ccccc4)c3C)nc2cc1CN[C@H](C)C(=O)O [Example 6, ((2-(2-methyl-[1,1′-biphenyl]-3-yl)-6-(methylthio)benzo[d]oxazol-5-yl)methyl)-D-alanine]	–	10 to 100
CSc1cc2oc(-c3cccc(-c4ccccc4)c3C)nc2cc1CN1CCC[C@@H]1C(=O)O [Example 7, ((2-(2-methyl-[1,1′-biphenyl]-3-yl)-6-(methylthio)benzo[d]oxazol-5-yl)methyl)-D-proline]	–	0.1 to 10
CSc1cc2oc(-c3cccc(-c4ccccc4)c3C)nc2cc1CN1CCCCC1CO (centres unmarked) [Example 8, (1-((2-(2-methyl-[1,1′-biphenyl]-3-yl)-6-(methylthio)benzo[d]oxazol-5-yl)methyl)piperidin-2-yl)methanol]	–	10 to 100
CSc1cc2oc(-c3cccc(-c4ccccc4)c3C)nc2cc1CN1CCOC[C@H]1C(=O)O [Example 9, (S)-4-((2-(2-methyl-[1,1′-biphenyl]-3-yl)-6-(methylthio)benzo[d]oxazol-5-yl)methyl)morpholine-3-carboxylic acid]	–	0.1 to 10
CC[C@H](NCc1cc2nc(-c3cccc(-c4ccccc4)c3C)oc2cc1SC)C(=O)O [Example 10, (S)-2-(((2-(2-methyl-[1,1′-biphenyl]-3-yl)-6-(methylthio)benzo[d]oxazol-5-yl)methyl)amino)butanoic acid]	–	0.1 to 10
CC[C@@H](NCc1cc2nc(-c3cccc(-c4ccccc4)c3C)oc2cc1SC)C(=O)O [Example 11, (R)-2-(((2-(2-methyl-[1,1′-biphenyl]-3-yl)-6-(methylthio)benzo[d]oxazol-5-yl)methyl)amino)butanoic acid]	–	10 to 100
CSc1cc2oc(-c3cccc(-c4ccccc4)c3C)nc2cc1CN[C@H](CO)C(=O)O [Example 12, ((2-(2-methyl-[1,1′-biphenyl]-3-yl)-6-(methylthio)benzo[d]oxazol-5-yl)methyl)-D-serine]	–	0.1 to 10
CSc1cc2oc(-c3cccc(-c4ccccc4)c3C)nc2cc1CN[C@@H](CO)C(=O)O [Example 13, ((2-(2-methyl-[1,1′-biphenyl]-3-yl)-6-(methylthio)benzo[d]oxazol-5-yl)methyl)-L-serine]	–	0.1 to 10
CSc1cc2oc(-c3cccc(-c4ccccc4)c3C#N)nc2cc1CN1CCC[C@H]1C(=O)O [Example 14, ((2-(2-cyano-[1,1′-biphenyl]-3-yl)-6-(methylthio)benzo[d]oxazol-5-yl)methyl)-L-proline]	–	0.1 to 10
CSc1cc2oc(-c3cccc(-c4ccccc4C#N)c3C#N)nc2cc1CN1CCC[C@H]1C(=O)O [Example 15, ((2-(2,2′-dicyano-[1,1′-biphenyl]-3-yl)-6-(methylthio)benzo[d]oxazol-5-yl)methyl)-L-proline]	–	10 to 100
CSc1cc2oc(-c3cccc(-c4ccccc4)c3C)nc2cc1CN1CCCC1(C)C(=O)O (centres unmarked) [Example 16, 2-methyl-1-((2-(2-methyl-[1,1′-biphenyl]-3-yl)-6-(methylthio)benzo[d]oxazol-5-yl)methyl)pyrrolidine-2-carboxylic acid]	–	0.1 to 10
Cc1cc2oc(-c3cccc(-c4ccccc4)c3C#N)nc2cc1CN1CCC[C@@H]1C(=O)O [Example 17, ((2-(2-cyano-[1,1′-biphenyl]-3-yl)-6-methylbenzo[d]oxazol-5-yl)methyl)-D-proline]	–	0.1 to 10

SMILES	IC50 (Table 6, numeric values) [nM]	IC50 (Table 6, class symbols) [nM]
Cc1cc2oc(-c3cccc(-c4ccccc4)c3C#N)nc2cc1CN1CCC[C@H]1C(=O)O [Example 18, ((2-(2-cyano-[1,1′-biphenyl]-3-yl)-6-methylbenzo[d]oxazol-5-yl)methyl)-L-proline]	–	0.1 to 10
Cc1cc2oc(-c3cccc(-c4ccccc4)c3C#N)nc2cc1CN1CCOC[C@H]1C(=O)O [Example 19, (S)-4-((2-(2-cyano-[1,1′-biphenyl]-3-yl)-6-methylbenzo[d]oxazol-5-yl)methyl)morpholine-3-carboxylic acid]	–	0.1 to 10
Cc1c(-c2ccccc2)cccc1-c1nc2cc(CN3CCC[C@H]3C(=O)O)c(O)cc2o1 [Example 21, ((6-hydroxy-2-(2-methyl-[1,1′-biphenyl]-3-yl)benzo[d]oxazol-5-yl)methyl)-L-proline]	–	10 to 100
Cc1c(-c2ccccc2)cccc1-c1nc2cc(CN3CC[C@H](O)C3)c(F)cc2o1 [Example 23, (S)-1-((6-fluoro-2-(2-methyl-[1,1′-biphenyl]-3-yl)benzo[d]oxazol-5-yl)methyl)pyrrolidin-3-ol]	–	10 to 100
Cc1c(-c2ccccc2)cccc1-c1nc2cc(CN3CCC[C@H]3C(=O)O)c(F)cc2o1 [Example 24, ((6-fluoro-2-(2-methyl-[1,1′-biphenyl]-3-yl)benzo[d]oxazol-5-yl)methyl)-L-proline]	7.2	–
Cc1c(-c2ccccc2)cccc1-c1nc2cc(CN3CCCC[C@H]3C(=O)O)c(F)cc2o1 [Example 25, (S)-1-((6-fluoro-2-(2-methyl-[1,1′-biphenyl]-3-yl)benzo[d]oxazol-5-yl)methyl)piperidine-2-carboxylic acid]	7.4	–
Cc1c(-c2ccccc2)cccc1-c1nc2cc(CN3CCCCC3C(=O)O)c(C#N)cc2o1 (centres unmarked) [Example 26, 1-((6-cyano-2-(2-methyl-[1,1′-biphenyl]-3-yl)benzo[d]oxazol-5-yl)methyl)piperidine-2-carboxylic acid]	–	0.1 to 10
CNc1cc2oc(-c3cccc(-c4ccccc4)c3C)nc2cc1CN1CCCCC1C(=O)O (centres unmarked) [Example 27, 1-((2-(2-methyl-[1,1′-biphenyl]-3-yl)-6-(methylamino)benzo[d]oxazol-5-yl)methyl)piperidine-2-carboxylic acid]	–	0.1 to 10
Cc1c(-c2ccccc2)cccc1-c1nc2cc(CN[C@@H](C(=O)O)[C@@H](C)O)c(OC(F)F)cc2o1 [Example 30, ((6-(difluoromethoxy)-2-(2-methyl-[1,1′-biphenyl]-3-yl)benzo[d]oxazol-5-yl)methyl)-D-allothreonine]	4.8	–
Cc1c(-c2ccccc2)cccc1-c1nc2cc(CN[C@H](C(=O)O)[C@H](C)O)c(OC(F)F)cc2o1 [Example 31, ((6-(difluoromethoxy)-2-(2-methyl-[1,1′-biphenyl]-3-yl)benzo[d]oxazol-5-yl)methyl)-L-allothreonine]	3.2	–
Cc1c(-c2ccccc2)cccc1-c1nc2cc(CN[C@@H](Cc3ccc(O)cc3)C(=O)O)c(OC(F)F)cc2o1 [Example 32, ((6-(difluoromethoxy)-2-(2-methyl-[1,1′-biphenyl]-3-yl)benzo[d]oxazol-5-yl)methyl)-L-tyrosine hydrochloride]	–	0.1 to 10
Cc1c(-c2ccccc2)cccc1-c1nc2cc(CN[C@@H](C)C(=O)O)c(OC(F)F)cc2o1 [Example 33, ((6-(difluoromethoxy)-2-(2-methyl-[1,1′-biphenyl]-3-yl)benzo[d]oxazol-5-yl)methyl)-L-alanine]	–	0.1 to 10
Cc1c(-c2ccccc2)cccc1-c1nc2cc(CN[C@H](C)C(=O)O)c(OC(F)F)cc2o1 [Example 34, ((6-(difluoromethoxy)-2-(2-methyl-[1,1′-biphenyl]-3-yl)benzo[d]oxazol-5-yl)methyl)-D-alanine]	–	10 to 100
Cc1c(-c2ccccc2)cccc1-c1nc2cc(CNCC(=O)O)c(OC(F)F)cc2o1 [Example 35, ((6-(difluoromethoxy)-2-(2-methyl-[1,1′-biphenyl]-3-yl)benzo[d]oxazol-5-yl)methyl)glycine]	–	0.1 to 10
Cc1c(-c2ccccc2)cccc1-c1nc2cc(CN3CCC[C@@H]3C(=O)O)c(OC(F)F)cc2o1 [Example 37, ((6-(difluoromethoxy)-2-(2-methyl-[1,1′-biphenyl]-3-yl)benzo[d]oxazol-5-yl)methyl)-D-proline]	–	10 to 100
Cc1c(-c2ccccc2)cccc1-c1nc2cc(CN3CCCCC3CO)c(OC(F)F)cc2o1 (centres unmarked) [Example 38, (1-((6-(difluoromethoxy)-2-(2-methyl-[1,1′-biphenyl]-3-yl)benzo[d]oxazol-5-yl)methyl)piperidin-2-yl)methanol]	–	0.1 to 10
